Measured values: patent publication US7745619B2, “Vinca derivatives” (priority 2003, dated 2010)

Assays:
Type in all cases: cell-based
BT-549 = experiment: NCI 60-cell line growth inhibition assay: BT-549; conditions: Homo sapiens, Breast, read-out: GI50
HS 578T = experiment: NCI 60-cell line growth inhibition assay: HS 578T; conditions: Homo sapiens; Breast, HS 578T; read-out: GI50
MCF7 = experiment: NCI 60-cell line growth inhibition assay: MCF7; conditions: Homo sapiens, Breast, read-out: GI50
MDA-MB-231/ATCC = experiment: NCI 60-cell line growth inhibition assay: MDA-MB-231/ATCC; conditions: Homo sapiens; Breast, MDA-MB-231/ATCC; read-out: GI50
MDA-MB-435 = experiment: NCI 60-cell line growth inhibition assay: MDA-MB-435; conditions: Homo sapiens, Breast, read-out: GI50
NCI/ADR-RES = conditions: Homo sapiens, Breast, read-out: GI50
SF-295 = experiment: NCI 60-cell line growth inhibition assay: SF-295; conditions: Homo sapiens, CNS, read-out: GI50
SF-539 = experiment: NCI 60-cell line growth inhibition assay: SF-539; conditions: Homo sapiens; CNS, SF-539; read-out: GI50
SNB-19 = experiment: NCI 60-cell line growth inhibition assay: SNB-19; conditions: Homo sapiens, CNS, read-out: GI50
SNB-75 = experiment: NCI 60-cell line growth inhibition assay: SNB-75; conditions: Homo sapiens, CNS, read-out: GI50
U251 = experiment: NCI 60-cell line growth inhibition assay: U251; conditions: Homo sapiens, U-251; CNS, U251; read-out: GI50
COLO 205 = experiment: NCI 60-cell line growth inhibition assay: COLO 205; conditions: Homo sapiens, Colon, read-out: GI50
HCC-2998 = experiment: NCI 60-cell line growth inhibition assay: HCC-2998; conditions: Homo sapiens; Colon, HCC-2998; read-out: GI50
HCT-116 = experiment: NCI 60-cell line growth inhibition assay: HCT-116; conditions: Homo sapiens, Colon, read-out: GI50
HCT-15 = experiment: NCI 60-cell line growth inhibition assay: HCT-15; conditions: Homo sapiens, Colon, read-out: GI50
HT29 = experiment: NCI 60-cell line growth inhibition assay: HT29; conditions: Homo sapiens, HT-29; Colon, HT29; read-out: GI50
KM12 = experiment: NCI 60-cell line growth inhibition assay: KM12; conditions: Homo sapiens, Colon, read-out: GI50
SW-620 = experiment: NCI 60-cell line growth inhibition assay: SW-620; conditions: Homo sapiens, Colon, read-out: GI50
K-562 = experiment: NCI 60-cell line growth inhibition assay: K-562; conditions: Homo sapiens, K562; Leukemia, K-562; read-out: GI50
MOLT-4 = experiment: NCI 60-cell line growth inhibition assay: MOLT-4; conditions: Homo sapiens, Leukemia, read-out: GI50
LOX IMVI = experiment: NCI 60-cell line growth inhibition assay: LOX IMVI; conditions: Homo sapiens, Melanoma, read-out: GI50
M14 = experiment: NCI 60-cell line growth inhibition assay: M14; conditions: Homo sapiens, Melanoma, read-out: GI50
MALME-3M = experiment: NCI 60-cell line growth inhibition assay: MALME-3M; conditions: Homo sapiens; Melanoma, MALME-3M; read-out: GI50
SK-MEL-2 = experiment: NCI 60-cell line growth inhibition assay: SK-MEL-2; conditions: Homo sapiens, Melanoma, read-out: GI50
SK-MEL-5 = experiment: NCI 60-cell line growth inhibition assay: SK-MEL-5; conditions: Homo sapiens, Melanoma, read-out: GI50
UACC-257 = experiment: NCI 60-cell line growth inhibition assay: UACC-257; conditions: Homo sapiens, Melanoma, read-out: GI50
UACC-62 = experiment: NCI 60-cell line growth inhibition assay: UACC-62; conditions: Homo sapiens, Melanoma, read-out: GI50
A549/ATCC = experiment: NCI 60-cell line growth inhibition assay: A549/ATCC; conditions: Homo sapiens; Non-Small Cell Lung, A549/ATCC; read-out: GI50
EKVX = experiment: NCI 60-cell line growth inhibition assay: EKVX; conditions: Homo sapiens, Non-Small Cell Lung, read-out: GI50
HOP-62 = experiment: NCI 60-cell line growth inhibition assay: HOP-62; conditions: Homo sapiens, Non-Small Cell Lung, read-out: GI50
HOP-92 = experiment: NCI 60-cell line growth inhibition assay: HOP-92; conditions: Homo sapiens, Non-Small Cell Lung, read-out: GI50
NCI-H23 = conditions: Homo sapiens, Non-Small Cell Lung, read-out: GI50
NCI-H460 = conditions: Homo sapiens, Non-Small Cell Lung, read-out: GI50
NCI-H522 = conditions: Homo sapiens, Non-Small Cell Lung, read-out: GI50
OVCAR-3 = experiment: NCI 60-cell line growth inhibition assay: OVCAR-3; conditions: Homo sapiens, Ovarian, read-out: GI50
OVCAR-4 = experiment: NCI 60-cell line growth inhibition assay: OVCAR-4; conditions: Homo sapiens, Ovarian, read-out: GI50
OVCAR-5 = experiment: NCI 60-cell line growth inhibition assay: OVCAR-5; conditions: Homo sapiens, Ovarian, read-out: GI50
OVCAR-8 = experiment: NCI 60-cell line growth inhibition assay: OVCAR-8; conditions: Homo sapiens, Ovarian, read-out: GI50
SK-OV-3 = experiment: NCI 60-cell line growth inhibition assay: SK-OV-3; conditions: Homo sapiens, Ovarian, read-out: GI50
DU-145 = experiment: NCI 60-cell line growth inhibition assay: DU-145; conditions: Homo sapiens, Prostate, read-out: GI50
PC-3 = experiment: NCI 60-cell line growth inhibition assay: PC-3; conditions: Homo sapiens, Prostate, read-out: GI50
786-0 = experiment: NCI 60-cell line growth inhibition assay: 786-0; conditions: Homo sapiens, Renal, read-out: GI50
A498 = experiment: NCI 60-cell line growth inhibition assay: A498; conditions: Homo sapiens, Renal
Excerpt: The following data in Table 4 summarize the growth inhibition properties of several compounds of the present invention against 60-human transformed cell lines.

ACHN = experiment: NCI 60-cell line growth inhibition assay: ACHN; conditions: Homo sapiens, Renal, read-out: GI50
CAKI-1 = experiment: NCI 60-cell line growth inhibition assay: CAKI-1; conditions: Homo sapiens, Renal, read-out: GI50
RXF 393 = experiment: NCI 60-cell line growth inhibition assay: RXF 393; conditions: Homo sapiens, Renal, read-out: GI50
SN12C = experiment: NCI 60-cell line growth inhibition assay: SN12C; conditions: Homo sapiens, Renal, read-out: GI50
TK-10 = experiment: NCI 60-cell line growth inhibition assay: TK-10; conditions: Homo sapiens, Renal, read-out: GI50
UO-31 = experiment: NCI 60-cell line growth inhibition assay: UO-31; conditions: Homo sapiens, Renal, read-out: GI50

Measured: GI50

C#Cc1ccc2[nH]c3c(c2c1)CCN1C[C@H](C[C@@](O)(CC)C1)C[C@]3(C(=O)OC)c1cc2c(cc1OC)N(C)[C@H]1[C@@](O)(C(=O)OC)[C@H](OC(C)=O)[C@]3(CC)C=CCN4CC[C@]21[C@@H]43 [Example 17, 12′-ethynylvinblastine]
22400 nM: UACC-257
98.6 nM: UO-31
2090 nM: NCI/ADR-RES
53.1 nM: K-562
73.4 nM: CAKI-1
160 nM: HOP-92
15.3 nM: OVCAR-4
44 nM: HCT-15
16.9 nM: A549/ATCC
< 10 nM: all other assays above
